Measurements taken from patent US11154621B2, “Liponucleotide-based therapy for COPD” (priority 2017, dated 2021).

Legend:
[1] = tested on: influenza A/WSN/33 (H1N1)-infected mice; experiment: Effect of influenza infection and i.p. liponucleotide treatment on lung function; assay type: in vivo, mouse
[2] = tested on: elastase-induced emphysema in C57BL/6 mice; experiment: Mouse model of emphysema (intratracheal elastase administration); assay type: in vivo; settings: daily i.p. days 1-13, day 14
Experimental: To experimentally determine the efficacy of the liponucleotides (lipoNTs) CDP-choline (CDP-CHO), CDP-ethanolamine (CDP-ETH), and CDP-diacylglycerol 16:0/16:0 (CDP-DAG) as therapeutics in a mouse model of emphysema (intratracheal elastase administration) (Yoshida S, et al. Am J Physiol Lung Cell Mol Physiol 2012 303:L852-L860).
(§1) To induce emphysema, porcine pancreatic elastase was administered intratracheally to adult female C57BL/6 mice (n=5-10 per group) by per os intubation under light anesthesia at day 0 and day 7. LipoNTs were administered daily by the intraperitoneal route in 50 μl sterile saline at the timepoints indicated for each group.
Analysis of elastase and lipoNT effects: Data were collected 14 days after first elastase administration in terminal experiments.
1. Static lung compliance (CST) was measured in live mice by the forced-oscillation method using the SciReq flexiVent computer-controlled mechanical ventilator, as in previous studies (Traylor Z P, Yet al. Am J Physiol Lung Cell Mol Physiol 2010 298:L437-L445).
2. Following flexiVent analysis, bronchoalveolar lavage was performed on all mice using 0.8 ml PBS. BALF total and differential cell counts (trypan-blue stained live cells and Giemsa-stained cytospins, respectively) were performed on cell pellets to assess inflammatory cell infiltrates. BALF alveolar macrophage (AM) counts were determined.

[3] = tested on: BLEO-induced pulmonary fibrosis in C57BL/6 mice; experiment: Mouse model of pulmonary fibrosis (bleomycin exposure); assay type: in vivo; settings: for Mortality: CDP-CHO, CDP-ETH 5 mg/kg, CDP-DAG 0.5 mg/kg
Experimental: To experimentally determine the efficacy of the liponucleotides (lipoNTs) CDP-choline (CDP-CHO), CDP-ethanolamine (CDP-ETH), and CDP-diacylglycerol 16:0/16:0 (CDP-DAG) as therapeutics in a mouse model of pulmonary fibrosis (bleomycin exposure) (Chung S, et al. Oncotarget 2016 7:17532-17546).
as §1, with “bleomycin (BLEO)” for “porcine pancreatic elastase”, “light ketamine/xylazine” for “light”, “0.” for “0 and day 7.”
Data were collected 21 days after first exposure to BLEO in terminal experiments.
2. Carotid arterial O2 saturation (SaO2) and heart rate were measured in conscious individually-identified animals by pulse oximetry using the MouseOx system.
3. Static lung compliance (CST) was measured in live mice by the forced-oscillation method using the SciReq flexiVent computer-controlled mechanical ventilator, as in previous studies (Traylor Z P, et al. Am J Physiol Lung Cell Mol Physiol 2010 298:L437-L445).
4. Following flexiVent analysis, lungs were removed and flash frozen in liquid N2 for analysis of collagen content. Soluble collagen was measured by a standard Sircol assay.

[4] = infected mice, day 6, i.p. daily from 1-5 days post-infection, CDP-CHO, CDP-ETH 100 μg/mouse, CDP-DAG 10 μg/mouse

Compound	PaO2 equivalent ([1]; equivalent of SaO2 increase, from approximately 65 mmHg)	O2 carrying capacity of blood (CaO2) ([1]; equivalent of SaO2 increase, from approximately 88%)	SaO2 after CDP-choline treatment ([1]; increased from approximately 85%, infected mice)	effects of single dose treatment late in infection compared with daily treatment ([1]; infected mice)	SaO2 (%) [1, 4]	static lung compliance (CST) ([2]; CDP-CHO, CDP-ETH 5 mg/kg, CDP-DAG 0.5 mg/kg)	elastase-induced increase in BALF alveolar macrophages (AMs) [2]	Mortality ([3]; BLEO, daily i.p. D1-20, day 21)	Mortality ([3]; BLEO, daily i.p. D1-20, day 21, listed as CHO)	CST (ml/cmH2O ×10) ([3]; BLEO, daily i.p. D1-20, day 21)	SaO2 (%) ([3]; BLEO, daily i.p. D1-20, day 21)	Collagen ([3]; BLEO, daily i.p. D1-20, lung soluble collagen, day 21)	other beneficial effects in this model of pulmonary fibrosis ([3]; daily from 1-20 days after BLEO)	HR (bpm) [1, 4]	WET:DRY [1, 4]
C[N+](C)(C)CCOP(=O)(O)OP(=O)(O)OC[C@H]1O[C@@H](n2ccc(N)nc2=O)C(O)C1O (stereo partly shown) [CDP-CHO, CDP-choline]	approximately 85 mmHg	approximately 97 % of normal	approximately 96%	as good as those of daily treatment	93.5 ± 1.0 %	decreases CST	enhanced	significantly attenuated BLEO-induced mortality	20%	0.38 ± 0.02 ml/cmH2O ×10	97.0 ± 1.0%	0.79 ± 0.08 mg/mL	no other beneficial effects	–	–
CDP-diacylglycerol [CDP-DAG]	–	–	–	–	95.2 ± 1.6 %	–	–	–	–	–	–	–	–	600 ± 10 bpm	5.8 ± 0.1
